The source made the active and inactive calls. How the calls were made is not given here.
Tested on: rodent carcinogenicity bioassays, tumor incidence
Assay: CCRIS carcinogenicity studies
Procedure, shortened: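 NCI-built, expert-reviewed records of carcinogenicity and related test outcomes (mutagenicity, tumor promotion/inhibition) compiled from published and report sources, historical span 1985-2011, not updated.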

Measured: carcinogen call

BrCCBr
active: Species: FISH, Strain/Sex: JAPANESE MEDAKA/MALE,FEMALE, Route: IMMERSION, Dose: 0, 0.133, 6.2, 18.58 MG/L IN WATER FOR UP TO 97 D (STUDY DURATION: 58 WK), Dose: 0, 0.133, 6.2, 18.58 MG/L IN WATER FOR UP TO 97 D (STUDY DURATION: 58 WK), Tumor Site: Type of Lesion: LIVER: HEPATOCELLULAR ADENOMA, HEPATOCELLULAR CARCINOMA, CHOLANGIOMA, CHOLANGIOCELLULAR CARCINOMA, GALL BLADDER: TUMOR active; positive | Species: FISH, Strain/Sex: SHASTA RAINBOW TROUT/MALE, FEMALE, Route: ORAL, Dose: 0, 2000 PPM IN DIET FOR 18 MO (STUDY DURATION: 18 MO), Tumor Site: Type of Lesion: STOMACH: PAPILLOMA active; positive | Species: MOUSE, Strain/Sex: B6C3F1/FEMALE, Route: GAVAGE, Dose: 0, 62, 107 MG/KG, TWA IN CORN OIL (STUDY DURATION: 78-90 WK), Dose: 0, 62, 107 MG/KG, TWA IN CORN OIL (STUDY DURATION: 78-90 WK), Tumor Site: Type of Lesion: LUNG: ALVEOLAR/BRONCHIOLAR ADENOMA, CARCINOMA, STOMACH: SQUAMOUS CELL CARCINOMA active; positive | Species: MOUSE, Strain/Sex: B6C3F1/FEMALE, Route: INHALATION, Dose: 0, 10, 40 PPM 6 HR/D, 5 D/WK FOR 90-103 WK (STUDY DURATION: 91-104 WK), Dose: 0, 10, 40 PPM 6 HR/D, 5 D/WK FOR 90-103 WK (STUDY DURATION: 91-104 WK), Tumor Site: Type of Lesion: INTEGUMENTARY SYSTEM (SUBCUTANEOUS TISSUE OR RIB): FIBROSARCOMA, NASAL CAVITY: CARCINOMA (NOS), CARCINOMA (NOS) OR ADENO active; positive | Species: MOUSE, Strain/Sex: B6C3F1/FEMALE, Route: INHALATION, Dose: 0, 10, 40 PPM 6 HR/D, 5 D/WK FOR 90-103 WK (STUDY DURATION: 91-104 WK), Dose: 0, 10, 40 PPM 6 HR/D, 5 D/WK FOR 90-103 WK (STUDY DURATION: 91-104 WK), Tumor Site: Type of Lesion: NASAL CAVITY: SQUAMOUS CELL PAPILLOMA, CARCINOMA active; positive | Species: MOUSE, Strain/Sex: B6C3F1/MALE, Route: GAVAGE, Dose: 0, 62, 107 MG/KG, TWA IN CORN OIL (STUDY DURATION: 77-78 WK), Dose: 0, 62, 107 MG/KG, TWA IN CORN OIL (STUDY DURATION: 77-78 WK), Tumor Site: Type of Lesion: LUNG: ALVEOLAR/BRONCHIOLAR ADENOMA, STOMACH: SQUAMOUS CELL PAPILLOMA, SQUAMOUS CELL CARCINOMA active; positive | Species: MOUSE, Strain/Sex: B6C3F1/MALE, Route: INHALATION, Dose: 0, 10, 40 PPM 6 HR/D, 5 D/WK FOR 78 WK (STUDY DURATION: 79 WK), Dose: 0, 10, 40 PPM 6 HR/D, 5 D/WK FOR 78 WK (STUDY DURATION: 79 WK), Tumor Site: Type of Lesion: LUNG: ALVEOLAR/BRONCHIOLAR ADENOMA, ALVEOLAR/BRONCHIOLAR CARCINOMA active; positive | Species: MOUSE, Strain/Sex: B6C3F1/MALE, Route: INHALATION, Dose: 0, 10, 40 PPM 6 HR/D, 5 D/WK FOR 90-103 WK (STUDY DURATION: 91-104 WK), Dose: 0, 10, 40 PPM 6 HR/D, 5 D/WK FOR 90-103 WK (STUDY DURATION: 91-104 WK), Tumor Site: Type of Lesion: NASAL CAVITY: SQUAMOUS CELL PAPILLOMA active; positive | Species: RAT, Strain/Sex: F344/FEMALE, Route: INHALATION, Dose: 0, 10, 40 PPM 6 HR/D, 5 D/WK FOR 91-103 WK (STUDY DURATION: 92-104 WK), Dose: 0, 10, 40 PPM 6 HR/D, 5 D/WK FOR 91-103 WK (STUDY DURATION: 92-104 WK), Tumor Site: Type of Lesion: NASAL CAVITY: ADENOMA (NOS), CARCINOMA (NOS), ADENOCARCINOMA (NOS);LUNG: ALVEOLAR/BRONCHIOLAR ADENOMA OR CARCINOMA;SPLEE active; positive | Species: RAT, Strain/Sex: F344/MALE, Route: INHALATION, Dose: 0, 10, 40 PPM 6 HR/D, 5 D/WK FOR 88-103 WK (STUDY DURATION: 89-104 WK), Dose: 0, 10, 40 PPM 6 HR/D, 5 D/WK FOR 88-103 WK (STUDY DURATION: 89-104 WK), Tumor Site: Type of Lesion: NASAL CAVITY: ADENOMA (NOS), ADENOCARCINOMA (NOS), CARCINOMA (NOS), ADENOMATOUS POLYP (NOS), CIRCULATORY SYSTEM: HEMANGI active; positive | Species: RAT, Strain/Sex: OSBORNE-MENDEL/FEMALE, Route: GAVAGE, Dose: 0, 37, 39 MG/KG, TWA IN CORN OIL (STUDY DURATION: 61 WK), Dose: 0, 37, 39 MG/KG, TWA IN CORN OIL (STUDY DURATION: 61 WK), Tumor Site: Type of Lesion: STOMACH: SQUAMOUS CELL CARCINOMA, LIVER: HEPATOCELLULAR CARCINOMA, NEOPLASTIC NODULE active; positive | Species: RAT, Strain/Sex: OSBORNE-MENDEL/MALE, Route: GAVAGE, Dose: 0, 38, 41 MG/KG, TWA IN CORN OIL (STUDY DURATION: 49 WK), Dose: 0, 38, 41 MG/KG, TWA IN CORN OIL (STUDY DURATION: 49 WK), Tumor Site: Type of Lesion: BLOOD VESSELS: HEMANGIOSARCOMA, STOMACH: SQUAMOUS CELL CARCINOMA active; positive | Species: RAT, Strain/Sex: SPRAGUE-DAWLEY/FEMALE, Route: INHALATION, Dose: 20 PPM 7 HR/D, 5 D/WK FOR 18 MO, Tumor Site: Type of Lesion: SPLEEN: HEMANGIOSARCOMA, ADRENAL GLAND: PHEOCHROMOCYTOMA, CORTICAL ADENOMA, CARCINOMA, MAMMARY GLAND: ADENOMA, FIBROADEN, Tumor Site: Type of Lesion: SPLEEN: HEMANGIOSARCOMA, ADRENAL GLAND: PHEOCHROMOCYTOMA, CORTICAL ADENOMA, CARCINOMA, MAMMARY GLAND: ADENOMA, FIBROADEN active; positive | Species: RAT, Strain/Sex: SPRAGUE-DAWLEY/MALE, Route: INHALATION, Dose: 20 PPM 7 HR/D, 5 D/WK FOR 18 MO, Tumor Site: Type of Lesion: SPLEEN: HEMANGIOSARCOMA, ADRENAL GLAND: PHEOCHROMOCYTOMA, CORTICAL ADENOMA, CARCINOMA, INTEGUMENTARY SYSTEM (SUBCUTANEOU, Tumor Site: Type of Lesion: SPLEEN: HEMANGIOSARCOMA, ADRENAL GLAND: PHEOCHROMOCYTOMA, CORTICAL ADENOMA, CARCINOMA, INTEGUMENTARY SYSTEM (SUBCUTANEOU active; positive

CCC(=O)O[C@H]1CC[C@H]2[C@@H]3CCC4=CC(=O)CC[C@]4(C)[C@H]3CC[C@]12C
active: Species: MOUSE, Route: SUBCUTANEOUS IMPLANT, Tumor Site: Type of Lesion: CERVIX, UTERUS active; positive | Species: RAT, Route: SUBCUTANEOUS IMPLANT, Tumor Site: Type of Lesion: PROSTATE GLAND active; positive
